Literature values, collected in patent US9468626B2, “Melatonin-based formulations for parenteral administration” (CHIESI FARMACEUTICI S.p.A., priority 2014, dated 2016).

Experiments:
[1] = in vivo
[2] = exposed to light or oxygen
newborn piglets = details: intravenously, 5 mg/kg/h

For `COc1ccc2[nH]cc(CCNC(C)=O)c2c1` [melatonin, N-[2-(5-Methoxy-1H-indol-3-yl)ethyl]acetamide], the oral bioavailability [1] is listed as “low and very variable”, the solubility in water is listed as “poorly soluble in water” and the “stability in aqueous solution” value [2] is listed as “not stable when exposed to light or oxygen”. The hypothermic neuroprotection (newborn piglets) was “increases hypothermic neuroprotection”.
